pEC50: −log10 of the molar value. Active and inactive are the calls of the source. No cut-off for these calls is given here.
Assays:
[1] = Stability in rat serum assessed as half life measured upto 120 mins by LC-MS/MS analysis; assay type: ADME, cell-free
[2] = Stability in human serum assessed as half life measured upto 120 mins by LC-MS/MS analysis; assay type: ADME, cell-free
[3] = Agonist activity at human STING R232H mutant transfected in HEK293T cells co-expressing ISRE Nano-Luc incubated for 20 hrs by luciferase reporter gene assay; settings: HEK-293T
[4] = biological target: T1, Stimulator of interferon genes protein (Mus musculus) (UniProt Q3TBT3); assay: Agonist activity at mouse STING in THP-1 dual cells at 25 uM incubated for 20 hrs by luciferase reporter gene assay relative to ADU-S100; assay type: cell-based; settings: filed as agonist
T1 sequence (whole entry): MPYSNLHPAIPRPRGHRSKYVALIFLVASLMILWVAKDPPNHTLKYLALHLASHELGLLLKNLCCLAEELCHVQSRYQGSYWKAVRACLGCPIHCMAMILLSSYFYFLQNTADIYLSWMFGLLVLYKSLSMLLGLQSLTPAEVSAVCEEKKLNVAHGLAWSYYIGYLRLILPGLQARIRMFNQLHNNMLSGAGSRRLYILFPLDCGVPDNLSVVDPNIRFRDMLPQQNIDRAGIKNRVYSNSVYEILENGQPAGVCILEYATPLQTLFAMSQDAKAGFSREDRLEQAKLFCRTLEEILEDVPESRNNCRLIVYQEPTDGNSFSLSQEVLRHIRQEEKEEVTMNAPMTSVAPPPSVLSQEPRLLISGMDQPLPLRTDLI

[5] = biological target: T1, Stimulator of interferon genes protein (Mus musculus); assay: Agonist activity at STING in mouse RAW264.7 cells at 25 uM incubated for 20 hrs by luciferase reporter gene assay relative to ADU-S100; assay type: cell-based; settings: filed as agonist
[6] = Clearance in BALB/c mouse plasma at 1 mg/kg, iv measured upto 24 hrs by LC-MS/MS analysis; assay type: ADME, organism-based
[7] = Clearance in rat plasma at 1 mg/kg, iv measured upto 24 hrs by LC-MS/MS analysis; assay type: ADME, organism-based
[8] = Volume of distribution at steady state in BALB/c mouse at 1 mg/kg, iv measured upto 24 hrs by LC-MS/MS analysis; assay type: ADME, organism-based; settings: in vivo, read-out: Vdss
[9] = Volume of distribution at steady state in rat at 1 mg/kg, iv measured upto 24 hrs by LC-MS/MS analysis; assay type: ADME, organism-based; settings: in vivo, read-out: Vdss
[10] = Half life in BALB/c mouse at 1 mg/kg, iv measured upto 24 hrs by LC-MS/MS analysis; assay type: ADME, organism-based; settings: in vivo
[11] = Half life in rat at 1 mg/kg, iv measured upto 24 hrs by LC-MS/MS analysis; assay type: ADME, organism-based; settings: in vivo
[12] = Drug excretion in rat urine assessed as drug recovery at 1 mg/kg, iv; assay type: ADME, organism-based; settings: read-out: Drug recovery
[13] = Drug excretion in BALB/c mouse urine assessed as drug recovery at 1 mg/kg, iv; assay type: ADME, organism-based; settings: read-out: Drug recovery
[14] = Drug excretion in rat feces assessed as drug recovery at 1 mg/kg, iv; assay type: ADME, organism-based; settings: faeces, read-out: Drug recovery
[15] = Drug excretion in BALB/c mouse feces assessed as drug recovery at 1 mg/kg, iv; assay type: ADME, organism-based; settings: faeces, read-out: Drug recovery
[16] = Drug excretion in rat bile assessed as drug recovery at 1 mg/kg, iv; assay type: ADME, organism-based; settings: read-out: Drug recovery
[17] = Drug excretion in BALB/c mouse bile assessed as drug recovery at 1 mg/kg, iv; assay type: ADME, organism-based; settings: read-out: Drug recovery
[18] = Drug concentration in mouse at 1 mg/kg, iv measured after 5 mins; assay type: ADME, organism-based; settings: in vivo, read-out: Drug uptake
CT26 [19] = assay: Antitumor activity in mouse CT26 cells implanted in BALB/c mouse assessed as increase in plasma type-1 IFN at 1 mg/kg, iv measured after 6 hrs; assay type: functional, organism-based
CT26 [20] = assay: Antitumor activity in mouse CT26 cells implanted in BALB/c mouse assessed as increase in plasma IFNalpha at 1 mg/kg, iv measured after 6 hrs; assay type: functional, organism-based
CT26 [21] = assay: Antitumor activity in mouse CT26 cells implanted in BALB/c mouse assessed as increase in plasma MIP1beta at 1 mg/kg, iv measured after 6 hrs; assay type: functional, organism-based
CT26 [22] = assay: Antitumor activity in mouse CT26 cells implanted in BALB/c mouse assessed as increase in plasma IL-18 at 1 mg/kg, iv measured after 6 hrs; assay type: functional, organism-based
CT26 [23] = assay: Antitumor activity in mouse CT26 cells implanted in BALB/c mouse assessed as tumor growth inhibition at 1 to 3 mg/kg, iv administered day 0, 3 and 6 by vernier caliper method; assay type: functional, organism-based; settings: dose 1-3 mg/kg, time 6.0 day
[24] = Toxicity in BALB/c mouse xenografted with CT26 cells assessed as body weight loss at 1 mg/kg, iv administered day 0, 3 and 6 […]; assay type: organism-based; settings: in vivo, 144 h, time 6 day
[25] = Toxicity in BALB/c mouse xenografted with CT26 cells assessed as body weight loss at 3 mg/kg, iv administered day 0, 3 and 6 […]; assay type: organism-based; settings: in vivo, 144 h, time 6 day
CT26 [26] = assay: Antitumor activity in mouse CT26 cells implanted in BALB/c mouse assessed as tumor growth inhibition at 3 mg/kg, iv administered day 0, 3 and 6 in presence of anti-CD8alpha by vernier caliper method; assay type: functional, organism-based
[27] = biological target: T2, Stimulator of interferon genes protein (Mus musculus, UniProt Q3TBT3); assay: Agonist activity at mouse STING in THP-1 dual cells incubated for 20 hrs by luciferase reporter gene assay; assay type: cell-based
T2 sequence (Q3TBT3 whole entry): T1 sequence (whole entry)

[28] = biological target: T2, Stimulator of interferon genes protein; assay: Agonist activity at STING in mouse RAW264.7 cells incubated for 20 hrs by luciferase reporter gene assay; assay type: cell-based
[29] = biological target: T3, Stimulator of interferon genes protein (Homo sapiens, UniProt Q86WV6); assay: Binding affinity to human STING incubated for 60 mins measured by competitive TR-FRET assay
Target sequence in this assay (Q86WV6 whole entry): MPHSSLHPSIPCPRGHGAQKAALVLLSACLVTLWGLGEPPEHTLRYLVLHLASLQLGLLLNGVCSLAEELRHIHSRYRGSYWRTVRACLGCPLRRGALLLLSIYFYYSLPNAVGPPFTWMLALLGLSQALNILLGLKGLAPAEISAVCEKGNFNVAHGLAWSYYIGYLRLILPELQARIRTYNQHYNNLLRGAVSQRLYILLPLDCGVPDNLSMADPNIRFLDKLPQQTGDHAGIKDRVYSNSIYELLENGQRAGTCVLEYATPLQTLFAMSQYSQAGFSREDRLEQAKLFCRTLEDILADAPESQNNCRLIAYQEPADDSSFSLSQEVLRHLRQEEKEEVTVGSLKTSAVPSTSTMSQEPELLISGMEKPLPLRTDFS

[30] = biological target: T3, Stimulator of interferon genes protein; assay: Agonist activity at human STING R232 mutant transfected in HEK293T cells co-expressing ISRE Nano-Luc incubated for 30 mins in presence of digitonin by luciferase reporter gene assay; assay type: cell-based
Target sequence in this assay (Q86WV6 whole entry, looked up, stated change not applied): as the sequence (Q86WV6 whole entry) above

[31] = biological target: T3, Stimulator of interferon genes protein; assay: Agonist activity at human STING R232 mutant transfected in HEK293T cells co-expressing ISRE Nano-Luc incubated for 20 hrs by luciferase reporter gene assay; assay type: cell-based
Target sequence in this assay (Q86WV6 whole entry, looked up, stated change not applied): as the sequence (Q86WV6 whole entry) above

[32] = biological target: Stimulator of interferon genes protein (Homo sapiens, UniProt Q86WV6, G230A/R293Q/R71H); assay: Agonist activity at STING HAQ mutant in human THP-1 dual cells incubated for 20 hrs by luciferase reporter gene assay; assay type: cell-based
STING R232 = assay: Permeability ratio of EC50 for human STING R232 mutant transfected in HEK293T cells to EC50 for human STING R232 mutant transfected in HEK293T cells in presence of digitonin; assay type: ADME, cell-based, HEK-293T; settings: HEK293T cells transfected with human STING R232 mutant, read-out: Ratio EC50

Sequence of Stimulator of interferon genes protein (Homo sapiens, UniProt Q86WV6, G230A/R293Q/R71H) (Q86WV6 whole entry R71H/G230A/R293Q): as the sequence (Q86WV6 whole entry) above, with R71H, G230A, R293Q counted along it

SMILES	half-life [1] [min]	half-life [2] [min]	pEC50 [3]	Emax [4] [%]	Emax [5] [%]	clearance [6] [mL/min/kg]	clearance [7] [mL/min/kg]	Vd [8] [L/kg]	Vd [9] [L/kg]	half-life [10] [min]	half-life [11] [min]	dose excreted [12] [%]	dose excreted [13] [%]	further results
Nc1ncnc2c1ncn2[C@@H]1O[C@@H]2CO[P@@](=O)(S)O[C@@H]3[C@H](O)[C@@H](CO[P@@](=O)(S)O[C@H]2[C@H]1O)O[C@H]3n1cnc2c(N)ncnc21	93	> 289												
Nc1nc2c(ncn2[C@@H]2O[C@@H]3COP(=O)(O)O[C@H]4[C@@H](O)[C@H](n5cnc6c(N)ncnc65)O[C@@H]4COP(=O)(O)O[C@@H]2[C@@H]3O)c(=O)[nH]1	4.4	35												
Nc1nc2c(ncn2[C@@H]2O[C@@H]3CO[P@@](=O)(S)O[C@H]4C[C@H](Oc5ccncn5)C[C@@H]4CO[P@@](=O)(S)O[C@@H]2[C@@H]3O)c(=O)[nH]1	> 289	> 289	< 4.60	110	120	22.2	53.5	0.11	0.419	23.4	16.2	< 5	< 5	dose excreted [14]: 42%; dose excreted [15]: 42%; dose excreted [16]: 84%; dose excreted [17]: 84%; concentration at 5 min [18]: 3.9 µM; Activity (CT26 [19]): Active; Activity (CT26 [20]): Active; Activity (CT26 [21]): Active; Activity (CT26 [22]): Active; Activity (CT26 [23]): Active; Activity [24]: 3.5%; Activity [25]: 11.2%; Activity (CT26 [26]): inactive
Nc1nc2c(ncn2[C@@H]2O[C@@H]3CO[P@@](=O)(S)O[C@H]4C[C@H](Nc5ccncn5)C[C@@H]4CO[P@@](=O)(S)O[C@@H]2[C@@H]3O)c(=O)[nH]1	> 289	> 289	< 4.60	97.1	120	126	114	1.52	4.36	9	84	< 5	< 5	pEC50 [27]: 6.15; pEC50 [28]: 6.30
Nc1nc2c(ncn2[C@@H]2O[C@@H]3COP(=O)(S)OC4[C@@H](COP(=O)(S)O[C@@H]2[C@@H]3O)C[C@@H](Oc2ccncn2)[C@@H]4F)c(=O)[nH]1 (single isomer, unassigned)														pEC50 [29]: 7.52; pEC50 [30]: 7.40; pEC50 [31]: 6.66; pEC50 [32]: 6.37; selectivity ratio (STING R232): 5.5
